Experimental data reported in PMC6792352, “Limited Chemical Structural Diversity Found to Modulate Thyroid Hormone Receptor in the Tox21 Chemical Library” (Environmental Health Perspectives, 2019).
Counter-ions that a name gives are not always drawn.

Experiment: in vitro
Conditions: rat, gh3-tre-luc cells

SMILES	CC50 at 24 h (AC50 (uM) modified / 1000) [µM]	further results
CCCCC(CC)COC(=O)Cl (stereo not drawn) [2-Ethylhexyl chloroformate]		CC50 at 24 h (AC50 (uM) modified / 1000, Tox21_110001=Tox21_201491, viability, 1 nM T3 present, 24 h): > 90 µM
CCc1cc(C(N)=S)ccn1 [Ethionamide]	> 50	
O=C(O)CCCC/C=C(\c1ccccc1)c1cccnc1 [Isbogrel]	> 50	
CCCN(CC)C(CC)C(=O)Nc1c(C)cccc1C (stereo not drawn) [Etidocaine]	> 50	
C[C@H]1O[C@@H](O[C@H]2CC[C@@]3(C)[C@H](CC[C@@H]4[C@@H]3C[C@@H](O)[C@]3(C)[C@@H](C5=CC(=O)OC5)CC[C@]43O)C2)C[C@H](O)[C@@H]1O[C@H]1C[C@H](O)[C@H](O[C@H]2C[C@H](O)[C@H](O[C@@H]3O[C@H](CO)[C@@H](O)[C@H](O)[C@H]3O)[C@@H](C)O2)[C@@H](C)O1 [Deslanoside]	> 50	
COC(=O)N(C(=O)N1CO[C@@]2(C(=O)OC)Cc3cc(Cl)ccc3C2=N1)c1ccc(OC(F)(F)F)cc1 [Indoxacarb]	> 70	
CCO[Si](CCCN)(OCC)OCC [3-Aminopropyltriethoxysilane]	> 90	
CCCCOc1ccc(C(=O)CCN2CCCCC2)cc1 [Dyclonine hydrochloride]	4.72	
O=C(OCCCCCCOC(=O)c1ccccc1)c1ccccc1 [Hexane-1,6-diyl dibenzoate]	> 90	
C=C(c1ccc(C(=O)O)cc1)c1cc2c(cc1C)C(C)(C)CCC2(C)C [Bexarotene]	16.1	
CC(=O)OCCC1CCCCC1 [2-Cyclohexylethyl acetate]	> 90	
CN1CCC(=C2c3ccccc3CC(=O)c3sccc32)CC1 [Ketotifen]	16	
O=C(O)CNC(=O)c1ccccc1I [2-Iodohippuric acid]	> 50	
O=C(O)CCCc1c[nH]c2ccccc12 [Indole-3-butyric acid]	> 90	
COCCOC[C@H](CC1(C(=O)N[C@H]2CC[C@@H](C(=O)O)CC2)CCCC1)C(=O)Oc1ccc2c(c1)CCC2 [Candoxatril]	> 90	
C[C@H]1NCc2cc(-c3ccc4c(=O)c(C(=O)O)cn(C5CC5)c4c3OC(F)F)ccc21 [Garenoxacin mesylate hydrate]	> 50	
CN(C)CCC[C@@]1(c2ccc(F)cc2)OCc2cc(C#N)ccc21 [Escitalopram oxalate]	> 50	
COC(=O)c1ccccc1N [Methyl 2-aminobenzoate]		CC50 at 24 h (AC50 (uM) modified / 1000, Tox21_110001=Tox21_201657, viability, 1 nM T3 present, 24 h): > 90 µM
CC[C@@H]1/C=C(\C)C[C@H](C)C[C@H](OC)[C@H]2O[C@@](O)(C(=O)C(=O)N3CCCC[C@H]3C(=O)O[C@H](/C(C)=C/[C@@H]3CC[C@H](Cl)[C@H](OC)C3)[C@H](C)[C@@H](O)CC1=O)[C@H](C)C[C@@H]2OC [Pimecrolimus]	> 50	
c1ccc(-c2nc[nH]c2-c2ccccc2)cc1 [4,5-Diphenylimidazole]	> 50	
CC(C)=CCCC(C)CCO (stereo not drawn) [Citronellol]	> 100	
O=C1NCN(c2ccccc2)C12CCN(CCCOc1ccc(F)cc1)CC2 [AMI-193]	14.1	
OCCOc1cccc(OCCO)c1 [2,2'-[Benzene-1,3-diylbis(oxy)]diethanol]	> 90	

SMILES	CC50 at 24 h (AC50 (uM) modified / 1000) [µM]	further results
ClCCOCOCCCl [Bis(2-chloroethoxy)methane]		CC50 at 24 h (AC50 (uM) modified / 1000, Tox21_110001=Tox21_200284, viability, 1 nM T3 present, 24 h): > 100 µM
COc1ccc(S(=O)(=O)N2c3ccc(Cl)cc3[C@](O)(c3ccccc3Cl)[C@@H]2C(=O)N2CCC[C@H]2C(N)=O)cc1OC [Relcovaptan]	> 50	
NC(=O)c1ccccc1 [Benzamide]	> 90	
CC(C)C#N [2-Methylpropanenitrile]		CC50 at 24 h (AC50 (uM) modified / 1000, Tox21_110001=Tox21_201929, viability, 1 nM T3 present, 24 h): > 90 µM
NC(N)=O [Urea]	> 100	
S=C1SCN(Cc2ccccc2)CN1Cc1ccccc1 [Sulbentine]	23.1	
C#CC(C)(O)CC(C)C (stereo not drawn) [3,5-Dimethyl-1-hexyn-3-ol]	> 90	
CNC(=O)C[C@@H](N)C(=O)N[C@@H](C(=O)N[C@@H]1C(=O)N2[C@@H]1SC(C)(C)[C@@H]2C(=O)O)c1ccc(O)cc1 [Aspoxicillin]	> 50	
CNCCC(Oc1ccc(C(F)(F)F)cc1)c1ccccc1 (stereo not drawn) [Fluoxetine hydrochloride]	10.3	
COc1cc([C@@H]2c3cc4c(cc3[C@@H](O[C@@H]3O[C@@H]5CO[C@@H](C)O[C@H]5[C@H](O)[C@H]3O)[C@H]3COC(=O)[C@H]23)OCO4)cc(OC)c1OP(=O)(O)O [Etoposide phosphate]	> 50	
C[C@]12CCC(=O)C=C1C=C[C@@H]1[C@@H]2CC[C@@]2(C)[C@H]1CC[C@@]2(O)CCC(=O)O [Canrenoate potassium]	> 20	
CCN1CCN(C(=O)N[C@@H](C(=O)N[C@@H]2C(=O)N3C(C(=O)O)=C(CSc4nnnn4C)CS[C@H]23)c2ccc(O)cc2)C(=O)C1=O [Cefoperazone sodium]	> 50	
CNc1cc(OC)c(C(=O)N[C@@H]2CCN(Cc3ccccc3)[C@@H]2C)cc1Cl (racemic) [Nemonapride]	> 50	
COc1ccc(OC)c(OC)c1 [1,2,4-Trimethoxybenzene]	> 90	
CC(=O)CCC=C(C)C [6-Methyl-5-hepten-2-one]	> 90	
CCN[C@@H](C)Cc1cccc(C(F)(F)F)c1 [Dexfenfluramine hydrochloride]		CC50 at 24 h (AC50 (uM) modified / 1000, Tox21_110001=Tox21_112864, viability, 1 nM T3 present, 24 h): > 90 µM
CC(=O)OC(C(=O)c1ccccc1)c1ccccc1 (stereo not drawn) [Benzoin acetate]	> 90	
CCC1(c2ccccc2)C(=O)NC(=O)N(C(=O)c2ccccc2)C1=O (stereo not drawn) [Benzobarbital]	> 50	
COC(=O)CCCC(=O)O [5-Methoxy-5-oxopentanoic acid]	> 90	
O=C(NC(O)C(Cl)(Cl)Cl)NC(O)C(Cl)(Cl)Cl (stereo not drawn) [Dichloralurea]	> 50	
O=[N+]([O-])c1ccc(Oc2ccc([N+](=O)[O-])cc2)cc1 [1,1'-Oxybis(4-nitrobenzene)]	> 90	
CCCCC(CC)COC(=O)c1ccccc1 (stereo not drawn) [2-Ethylhexyl benzoate]	> 90	
CC(=O)Nc1ccc(O)cc1 [Acetaminophen]	> 50	

SMILES	CC50 at 24 h (AC50 (uM) modified / 1000) [µM]	further results
C1=COCCC1 [3,4-Dihydro-2H-pyran]	> 90	
CCCCCCCCCC(=O)O[C@H]1CC[C@H]2[C@@H]3CCC4=CC(=O)CC[C@@H]4[C@H]3CC[C@]12C [Nandrolone decanoate]	> 50	
C=CCc1ccc(OC(=O)Cc2ccccc2)c(OC)c1 [Eugenyl phenylacetate]		CC50 at 24 h (AC50 (uM) modified / 1000, Tox21_110001=Tox21_301203, viability, 1 nM T3 present, 24 h): > 90 µM
Cn1sc(Cl)cc1=O [5-Chloro-2-methyl-3(2H)-isothiazolone]	65.6	
COc1nn(CSP(=S)(OC)OC)c(=O)s1 [Methidathion]	> 90	
C=CC(=O)OCCOCCOCC [2-(2-Ethoxyethoxy)ethyl prop-2-enoate]	> 90	
Cc1ccc(O)c([C@H](CCN(C(C)C)C(C)C)c2ccccc2)c1 [Tolterodine]	18.9	
O=S1OCC2C(CO1)C1(Cl)C(Cl)=C(Cl)C2(Cl)C1(Cl)Cl (stereo not drawn) [Endosulfan]		CC50 at 24 h (AC50 (uM) modified / 1000, Tox21_110001=Tox21_202365, viability, 1 nM T3 present, 24 h): 55.9 µM; CC50 at 24 h (AC50 (uM) modified / 1000, Tox21_110001=Tox21_300657, viability, 1 nM T3 present, 24 h): 37.5 µM
CC(C)=CC1C(C(=O)OCc2cccc(Oc3ccccc3)c2)C1(C)C (stereo not drawn) [Phenothrin]	> 90	
O=C(O)Cc1c[nH]c2ccccc12 [Indole-3-acetic acid]	> 90	
Nc1nccs1 [2-Aminothiazole]	> 90	
COc1cc(C[C@H](C)N)c(OC)cc1C [(S)-(+)-2,5-Dimethoxy-4-methylamphetamine hydrochloride]	> 100	
Nc1ccc(NC(=O)c2ccc(N)cc2)cc1 [4,4'-Diaminobenzanilide]	> 90	
COC(=O)CCC(=O)CN [Methyl aminolevulinate hydrochloride]	> 50	
C=C1C[C@@H]2[C@H](CC[C@]3(C)C(=O)CC[C@@H]23)[C@@]2(C)C=CC(=O)C=C12 [Exemestane]	> 50	
O=C(c1ccccc1)c1ccc(O)c(O)c1O [2,3,4-Trihydroxbenzophenone]	75	
CNc1ccccc1 [N-Methylaniline]	> 90	
O=C(COc1ccc(Cl)cc1)OCCNC12CC3CC(CC(C3)C1)C2 [Adafenoxate]	> 50	
COCc1c(C(C)C)nc(C(C)C)c(/C=C/[C@@H](O)C[C@@H](O)CC(=O)O)c1-c1ccc(F)cc1 [Cerivastatin sodium]	> 50	
CC[C@@]1(O)C(=O)OCc2c1cc1n(c2=O)Cc2cc3c(CN(C)C)c(O)ccc3nc2-1 [Topotecan hydrochloride]	> 50	
CCCCCCCCO[C@@H]1O[C@H](CO)[C@@H](O)[C@H](O)[C@H]1O [Octyl beta-D-glucopyranoside]	> 90	
COC1CCC=CO1 (stereo not drawn) [3,4-Dihydro-2-methoxy-2H-pyran]	> 90	
